US11766425B2, “Antibiotic combination therapies” (BIOVERSYS AG, priority 2019, dated 2023)
Read-outs that look alike come from different tables or passages of the source. Bridge positions count the residues as written; N and C are the ends. Square brackets hold non-standard residues; d marks the D form. Peptide text beside a SMILES is read from it. Dab = NCC[C@H](N)C(=O)O

What was measured:
Format in all cases: cell-based, Acinetobacter baumannii
A. baumannii 401046-18 = test: broth microdilution checkerboard MIC/synergy; details: strain 401046-18; for MICs alone: antibiotic alone
Description: (§1) Checkerboards were performed according to the CLSI parameters used for microbroth dilution MIC5. CA-MHB, iron-depleted CA-MHB (ID-CA-MHB) or RPMI supplemented with 10% FCS medium were used as specified and ID-CA-MHB was prepared according to CLSI guidelines. […] FICI is calculated as follows: […]

A. baumannii 401255-18 = test: broth microdilution checkerboard MIC/synergy; details: strain 401255-18; for MICs alone: antibiotic alone
Description: as §1

A. baumannii 402292-17 = test: broth microdilution checkerboard MIC/synergy; details: strain 402292-17; for MICs alone: antibiotic alone
Description: as §1

A. baumannii 402608-17 = test: broth microdilution checkerboard MIC/synergy; details: strain 402608-17; for MICs alone: antibiotic alone
Description: as §1

A. baumannii ACC00535 = test: broth microdilution checkerboard MIC/synergy; details: strain ACC00535; rifabutin/SPR741 in combination
Description: as §1

A. baumannii HUMC1 = test: broth microdilution checkerboard MIC/synergy; details: strain HUMC1; for MICs alone: antibiotic alone
Description: as §1

A. baumannii IHMA1013816 = test: broth microdilution checkerboard MIC/synergy; details: strain IHMA1013816; for MICs alone: antibiotic alone
Description: as §1

A. baumannii IHMA690517 = test: broth microdilution checkerboard MIC/synergy; details: strain IHMA690517; for MICs alone: antibiotic alone
Description: as §1

A. baumannii IHMA863866 = test: broth microdilution checkerboard MIC/synergy; details: strain IHMA863866; for MICs alone: antibiotic alone
Description: as §1

A. baumannii IHMA867231 = test: broth microdilution checkerboard MIC/synergy; details: strain IHMA867231; for MICs alone: antibiotic alone
Description: as §1

A. baumannii IHMA919656 = test: broth microdilution checkerboard MIC/synergy; details: strain IHMA919656; for MICs alone: antibiotic alone
Description: as §1

A. baumannii UNT087-1 = test: broth microdilution checkerboard MIC/synergy; details: strain UNT087-1; for MICs alone: antibiotic alone
Description: as §1

A. baumannii UNT091-1 = test: broth microdilution checkerboard MIC/synergy; details: strain UNT091-1; for MICs alone: antibiotic alone
Description: as §1

A. baumannii UNT191-1 = test: broth microdilution checkerboard MIC/synergy; details: strain UNT191-1; for MICs alone: antibiotic alone
Description: as §1

A. baumannii UNT238-1 = test: broth microdilution checkerboard MIC/synergy; details: strain UNT238-1; for MICs alone: antibiotic alone
Description: as §1

A. baumannii UNT239-1 = test: broth microdilution checkerboard MIC/synergy; details: strain UNT239-1; for MICs alone: antibiotic alone
Description: as §1

[1] = tested on: A. baumannii LAC-4 strain; test: broth microdilution checkerboard MIC/synergy; details: for MICs alone: antibiotic alone
Description: as §1
The checkerboards were performed in CA-MHB or ID-CA-MHB for cefiderocol.

[2] = tested on: panel of MDR clinical isolates of A. baumannii
Description: as §1

[3] = rifabutin/SPR741 in combination
[4] = rifabutin/colistin checkerboard, CA-MHB
[5] = rifampicin/colistin checkerboard
[6] = rifampicin/colistin in combination
[7] = rifabutin/colistin in combination, CA-MHB
[8] = second antibiotic in combination with rifabutin, LAC-4, CA-MHB

CC(=O)N[C@H](C(=O)N[C@H](CO)C(=O)N[C@H]1CCNC(=O)[C@H]([C@@H](C)O)NC(=O)[C@H](CCN)NC(=O)[C@H](CCN)NC(=O)[C@H](CC(C)C)NC(=O)[C@@H](Cc2ccccc2)NC(=O)[C@H](CCN)NC1=O)[C@@H](C)O [SPR741] (Ac-T[dS][Dab][Dab][dF]L[Dab][Dab]T; lactam 3-C)
4 mg/L: MICs combi / in combination (A. baumannii 401255-18; [3]) | MICs combi / in combination (A. baumannii ACC00535) | MICs combi / in combination (A. baumannii HUMC1; [3]) | MICs combi / in combination (A. baumannii UNT191-1; [3]) | MICs combi / in combination (A. baumannii UNT238-1; [3]) | MICs combi / in combination (A. baumannii UNT239-1; [3]) | MICs combi / in combination ([1]; strain LAC-4, rifabutin/SPR741 in combination)
88%: strains on which synergy was observed ([2]; rifabutin with SPR741)
16 mg/L: MICs combi / in combination (A. baumannii 402608-17; [3]) | MICs combi / in combination (A. baumannii IHMA1013816; [3]) | MICs combi / in combination (A. baumannii IHMA690517; [3]) | MICs combi / in combination (A. baumannii IHMA863866; [3])
2 mg/L: MICs combi / in combination (A. baumannii UNT091-1; [3])
at least 8 fold: SPR741 concentration required to achieve synergy with rifabutin, relative to colistin ([2]; higher than the one of colistin)
8 mg/L: MICs combi / in combination (A. baumannii 401046-18; [3]) | MICs combi / in combination (A. baumannii IHMA919656; [3]) | MICs combi / in combination (A. baumannii UNT087-1; [3])
32 mg/L: MICs combi / in combination (A. baumannii 402292-17; [3]) | MICs combi / in combination (A. baumannii IHMA867231; [3])

colistin
512 mg/L: MICs alone (A. baumannii IHMA863866; [5]) | MICs alone (A. baumannii IHMA919656; [4]) | MICs alone (A. baumannii IHMA919656; [5])
0.25 mg/L: MICs alone (A. baumannii 401046-18; [5]) | MICs alone (A. baumannii 401255-18; [4]) | MICs alone (A. baumannii 401255-18; [5]) | MICs alone (A. baumannii 402292-17; [5]) | MICs combi (A. baumannii 402292-17; [7]) | MICs combi (A. baumannii 402608-17; [7]) | MICs combi (A. baumannii 402608-17; [6]) | MICs combi (A. baumannii UNT087-1; [7]) | MICs combi (A. baumannii UNT191-1; [6]) | MICs alone (A. baumannii UNT238-1; [4]) | MICs combi (A. baumannii UNT239-1; [7]) | MICs combi (A. baumannii UNT239-1; [6])
0.254: FICI [1, 8]
16 mg/L: MICs alone (A. baumannii IHMA1013816; [4]) | MICs alone (A. baumannii IHMA690517; [4]) | MICs alone (A. baumannii IHMA690517; [5])
4 mg/L: MICs combi (A. baumannii IHMA867231; [7]) | MICs combi (A. baumannii IHMA867231; [6])
1 mg/L: MICs alone (A. baumannii 402292-17; [4]) | MICs alone (A. baumannii 402608-17; [4]) | MICs alone (A. baumannii 402608-17; [5]) | MICs combi (A. baumannii IHMA863866; [7]) | MICs combi (A. baumannii IHMA919656; [7]) | MICs combi (A. baumannii IHMA919656; [6]) | MICs alone (A. baumannii UNT087-1; [4]) | MICs alone (A. baumannii UNT191-1; [5]) | MICs alone (A. baumannii UNT239-1; [4]) | MICs alone (A. baumannii UNT239-1; [5])
>512 mg/L: MICs alone (A. baumannii IHMA863866; [4])
0.5 mg/L: MICs alone (A. baumannii 401046-18; [4]) | MICs alone (A. baumannii HUMC1; [4]) | MICs alone (A. baumannii HUMC1; [5]) | MICs combi (A. baumannii IHMA690517; [7]) | MICs combi (A. baumannii IHMA863866; [6]) | MICs alone (A. baumannii UNT087-1; [5]) | MICs alone (A. baumannii UNT091-1; [4]) | MICs alone (A. baumannii UNT091-1; [5]) | MICs combi (A. baumannii UNT191-1; [7]) | MICs alone (A. baumannii UNT238-1; [5]) | MICs alone ([1]; strain LAC-4, rifabutin/colistin checkerboard, CA-MHB) | MICs alone ([1]; strain LAC-4, rifampicin/colistin checkerboard)
<0.5 mg/L: MICs combi (A. baumannii IHMA1013816; [7]) | MICs combi (A. baumannii IHMA1013816; [6]) | MICs combi (A. baumannii IHMA690517; [6])
0.06 mg/L: MICs combi (A. baumannii 401046-18; [6]) | MICs combi (A. baumannii 401255-18; [7]) | MICs combi (A. baumannii 401255-18; [6]) | MICs combi (A. baumannii UNT238-1; [7])
100%: strains on which synergy was observed ([2]; rifabutin with colistin, CA-MHB, 16 MDR isolates)
synergy (synergy (FICI≤0.5)): Interpretation [1, 8]
2 mg/L: MICs alone (A. baumannii UNT191-1; [4])
at least 16 fold: reduction of colistin MICs ([2]; in combination with rifabutin, colistin resistant strains, CA-MHB)
32 mg/L: MICs alone (A. baumannii IHMA1013816; [5]) | MICs alone (A. baumannii IHMA867231; [4]) | MICs alone (A. baumannii IHMA867231; [5])
